Laboratory results published in patent US20260297060A1, “COMPOUNDS FOR THE DEGRADATION OF MUTANT BRAF” (C4 THERAPEUTICS, INC., priority 2023, published 2026).
Read-outs that look alike come from different tables or passages of the source.

Experiment: Pharmacokinetics after 21 days dosing in the efficacy study (plasma, tumor and brain concentrations; plasma AUC at steady state), Example 14
Assay type: in vivo, female BALB/c nude mice
Conditions: for Concentration in Brain / concentration at 24 h: 24 h; for Concentration in Brain: BQL: below the lower limit of quantitation; for concentration at 4 h / concentration at 24 h / concentration at 0.25 h / concentration at 0.5 h / concentration at 1 h / concentration at 2 h / concentration at 8 h / concentration at 10 h / AUC: mouse, po; for AUC: read-out: Plasma AUC at steady state (Day 21), Average
Description: Agents were tested in the A375 human melanoma xenografts. Compound 26 and Compound 141 were administered to BALB/c nude mice bearing A375 tumors from PG-DO and dosed via PO twice a day (BID) or third a day (TIP) or dosed P daily (QD) from PG-D. Dabrafenib was administered to BALB/c nude mice bearing A375 tumors from PG-D1 and dosed via P daily (QD). Compound 26 was dosed at 1.5 mg/kg (QD), 2 mg/kg (TID), 3 mg/kg (BID), 6 mg/kg (QD) and 10 mg/kg (BID) for 21 days. Compound 141 was dosed at 0.75 mg/kg (BID), 1 mg/kg (TID), 1.5 mg/kg (BID), 3 mg/kg (QD) and 5 mg/kg (BID) for 21 days. Dabrafenib was dosed at 100 mg/kg for 21 days. This study was non-GLP.
The plasma samples were collected at predetermined time points for PK analysis. For non-termination plasma collection: the blood samples were collected into the 1.5 mL Eppendorf tubes containing 3 μL of 0.5 M EDTA-K2. And then the anticoagulant blood samples were centrifuged at 2,500 g at 4° C. for 15 minutes. For termination plasma collection: the mice was euthanized at predetermined time points post the treatment, the blood samples were collected into the 1.5 mL Eppendorf tubes containing 15 μL of 0.5 M EDTA-K2. And then the anticoagulant blood samples were centrifuged at 2,500 g at 4° C. for 15 minutes. The plasma samples were separated into 2 aliquots. The 1st was used for PK analysis, and the 2nd was served as backup.
The tumor samples were collected at predetermined time points for PK and WB analysis. The tumor was dissected out and split into 3 parts. The 1st part was used for PK analysis, the 2nd part was used for WB analysis and the last one was used as backup for the study. The samples were transferred into pre-labeled tubes and quickly froze in liquid nitrogen within 2 minutes after dissection. The samples were stored at −80° C. before analysis.
The brain samples were collected at predetermined time points for PK and potential WB analysis. The brain was dissected out and split into 3 parts (left brain, right brain upper and right brain lower), the left brain was used for PK, the right brain upper was used for WB and the last one was used as the backup for the study. The samples were transferred into pre-labeled tubes and quickly froze in liquid nitrogen within 2 minutes after dissection. The samples were stored at −80° C. before analysis.
The harvested plasma and tumor samples were processed for pharmacokinetics analysis by LC-MS/MS with a concentration range of 1.00-1,000 ng/mL for dabrafenib in plasma and 0.0500-50 ng/mL in tumor and brain homogenate, 5.00-10,000 ng/mL for Compound 141 in plasma and 0.200~200 ng/ml in tumor and brain homogenate. 20.0~20,000 ng/mL for Compound 26 in plasma and 0.5~500 ng/mL for Compound 26 tumor and brain homogenate.
Dabrafenib, Compound 26 and Compound 141 in female BALB/c nude mice plasma (K2-EDTA), tumor and brain homogenate were analyzed by LC-MS/MS (Triple Quad 6500+ Low Mass). Verapamil (5 ng/mL) in acetonitrile: methanol (V: V=95:5) was used as the internal standard for Dabrafenib, Compound 26 and Compound 141 in plasma. Verapamil (0.5 ng/mL) in acetonitrile: methanol (V: V=95:5) was used as the internal standard for Dabrafenib, Compound 26 and Compound 141 in tumor and brain homogenate.
An aliquot of 10 μL unknown sample, calibration standard, quality control, dilute quality control, single blank and double blank samples were added to the 96-well plate. Each sample for Dabrafenib, Compound 26 and Compound 141 in plasma (except the double blank) was quenched with 200 μL IS respectively (double blank sample was quenched with 200 μL ACN: MeOH (V: V=95:5)); each sample for Dabrafenib, Compound 26 and Compound 141 in tumor and brain(except the double blank) was quenched with 100 μL IS respectively (double blank sample was quenched with 100 μL ACN: MeOH (V: V=95:5)); and then the mixture was vortex-mixed for 5 min at 800 rpm and centrifuged for 15 min at 3220 g (4000 rpm), 4° C. […]

[1] = plasma, 1.5 mg/kg p.o. BID x 21 days, mean ± SEM
[2] = plasma, 1.5 mg/kg p.o. BID x 21 days, mean ± SEM, read-out: Concentration in Plasma
[3] = plasma, 2 mg/kg p.o. TID x 21 days, mean ± SEM
[4] = plasma, 2 mg/kg p.o. TID x 21 days, mean ± SEM, read-out: Concentration in Plasma
[5] = plasma, 3 mg/kg p.o. BID x 21 days, mean ± SEM
[6] = plasma, 3 mg/kg p.o. BID x 21 days, mean ± SEM, read-out: Concentration in Plasma
[7] = plasma, 6 mg/kg p.o. QD x 21 days, mean ± SEM
[8] = plasma, 6 mg/kg p.o. QD x 21 days, mean ± SEM, read-out: Concentration in Plasma
[9] = plasma, 10 mg/kg p.o. BID x 21 days, mean ± SEM
[10] = plasma, 10 mg/kg p.o. BID x 21 days, mean ± SEM, read-out: Concentration in Plasma
[11] = tumor, 1.5 mg/kg p.o. BID x 21 days, mean ± SEM, read-out: Concentration in Tumor
[12] = tumor, 2 mg/kg p.o. TID x 21 days, mean ± SEM, read-out: Concentration in Tumor
[13] = tumor, 3 mg/kg p.o. BID x 21 days, mean ± SEM, read-out: Concentration in Tumor
[14] = tumor, 6 mg/kg p.o. QD x 21 days, mean ± SEM, read-out: Concentration in Tumor
[15] = tumor, 10 mg/kg p.o. BID x 21 days, mean ± SEM, read-out: Concentration in Tumor

With `CCN(C)S(=O)(=O)Nc1ccc(F)c(Oc2ccc3ncn([C@H]4COC5(CCN(C6CC7(C6)CN(c6cc8c(cc6F)c(N6CCC(=O)NC6=O)nn8C)C7)CC5)C4)c(=O)c3c2)c1C#N` [Compound 26, (3R)-3-[6-[2-cyano-3-[[ethyl(methyl)sulfamoyl]amino]-6-fluoro-phenoxy]-4-oxo-quinazolin-3-yl]-8-[2-[3-(2,4-dioxohexahydropyrimidin-1-yl)-5-fluoro-1-methyl-indazol-6-yl]-2-azaspiro[3.3]heptan-6-yl]-1-oxa-8-azaspiro[4.5]decane] the “Concentration in Brain” value (1.5 mg/kg p.o. BID x 21 days) was “BQL”, the “Concentration in Brain” value (2 mg/kg p.o. TID x 21 days) was “BQL” and the “Concentration in Brain” value (3 mg/kg p.o. BID x 21 days) was “BQL”. The concentration at 4 h (brain, 1.5 mg/kg p.o. BID x 21 days, mean ± SEM, read-out: Concentration in Brain) was 28 ± 8.47 ng/g, the concentration at 4 h (brain, 2 mg/kg p.o. TID x 21 days, mean ± SEM, read-out: Concentration in Brain) was 51.1 ± 11.5 ng/g and the concentration at 4 h (brain, 3 mg/kg p.o. BID x 21 days, mean ± SEM, read-out: Concentration in Brain) was 66.6 ± 4.67 ng/g. It also gave a concentration at 4 h (brain, 6 mg/kg p.o. QD x 21 days, mean ± SEM, read-out: Concentration in Brain) of 116 ± 8.11 ng/g, a concentration at 24 h (brain, 6 mg/kg p.o. QD x 21 days, read-out: Concentration in Brain) of 7.19 ng/g and a concentration at 4 h (brain, 10 mg/kg p.o. BID x 21 days, mean ± SEM, read-out: Concentration in Brain) of 233 ± 48.4 ng/g. It also gave a concentration at 24 h (brain, 10 mg/kg p.o. BID x 21 days, read-out: Concentration in Brain) of 7.79 ng/g, a concentration at 0.25 h [1] of 1330 ± 120 ng/mL and a concentration at 0.5 h [1] of 1910 ± 332 ng/mL. It also gave a concentration at 1 h [1] of 3490 ± 364 ng/mL, a concentration at 2 h [1] of 3140 ± 671 ng/mL and a concentration at 4 h [2] of 2160 ± 716 ng/mL. It also gave a concentration at 8 h [1] of 912 ± 118 ng/mL, a concentration at 10 h [1] of 694 ± 79.9 ng/mL and a concentration at 24 h [2] of 32.3 ng/mL. For the same molecule, the AUC (plasma, 1.5 mg/kg p.o. BID × 21 days) was 37400 ng·h/mL, the concentration at 0.25 h [3] was 2630 ± 273 ng/mL and the concentration at 0.5 h [3] was 5750 ± 1100 ng/mL. It also gave a concentration at 1 h [3] of 5420 ± 571 ng/mL, a concentration at 2 h [3] of 5110 ± 286 ng/mL and a concentration at 4 h [4] of 3790 ± 666 ng/mL. For the same molecule, the concentration at 8 h [3] was 2060 ± 150 ng/mL, the concentration at 10 h [3] was 1550 ± 37.1 ng/mL and the concentration at 24 h [4] was 106 ± 17.7 ng/mL. It also gave an AUC (plasma, 2 mg/kg p.o. TID × 21 days) of 88300 ng·h/mL, a concentration at 0.25 h [5] of 2490 ± 107 ng/mL and a concentration at 0.5 h [5] of 4860 ± 801 ng/mL. The concentration at 1 h [5] was 5830 ± 591 ng/mL, the concentration at 2 h [5] was 6750 ± 675 ng/mL and the concentration at 4 h [6] was 3970 ± 452 ng/mL. The concentration at 8 h [5] was 3030 ± 252 ng/mL, the concentration at 10 h [5] was 2470 ± 266 ng/mL and the concentration at 24 h [6] was 116 ± 2.4 ng/mL. The AUC (plasma, 3 mg/kg p.o. BID × 21 days) was 87900 ng·h/mL, the concentration at 0.25 h [7] was 4440 ± 284 ng/mL and the concentration at 0.5 h [7] was 9990 ± 1160 ng/mL. The concentration at 1 h [7] was 12900 ± 669 ng/mL, the concentration at 2 h [7] was 14600 ± 723 ng/mL and the concentration at 4 h [8] was 8710 ± 1880 ng/mL. The concentration at 8 h [7] was 8220 ± 421 ng/mL, the concentration at 10 h [7] was 6200 ± 192 ng/mL and the concentration at 24 h [8] was 156 ± 10.9 ng/mL. For the same molecule, the AUC (plasma, 6 mg/kg p.o. QD × 21 days) was 115000 ng·h/mL, the concentration at 0.25 h [9] was 8790 ± 316 ng/mL and the concentration at 0.5 h [9] was 19300 ± 2220 ng/mL. The concentration at 1 h [9] was 20200 ± 2240 ng/mL, the concentration at 2 h [9] was 21300 ± 1560 ng/mL and the concentration at 4 h [10] was 15100 ± 2210 ng/mL. For the same molecule, the concentration at 8 h [9] was 10900 ± 379 ng/mL, the concentration at 10 h [9] was 8660 ± 186 ng/mL and the concentration at 24 h [10] was 273 ± 24.8 ng/mL. For the same molecule, the AUC (plasma, 10 mg/kg p.o. BID × 21 days) was 312000 ng·h/mL, the concentration at 4 h [11] was 392 ± 150 ng/g and the concentration at 24 h [11] was 11.8 ± 1.59 ng/g. The concentration at 4 h [12] was 930 ± 57.3 ng/g, the concentration at 24 h [12] was 80.7 ± 25.2 ng/g and the concentration at 4 h [13] was 1430 ± 159 ng/g. It also gave a concentration at 24 h [13] of 54.3 ± 8.91 ng/g, a concentration at 4 h [14] of 2910 ± 459 ng/g and a concentration at 24 h [14] of 338 ± 169 ng/g. It also gave a concentration at 4 h [15] of 4250 ± 313 ng/g and a concentration at 24 h [15] of 663 ± 153 ng/g.
